Patent US20220323406A1, “METHODS AND COMPOSITIONS FOR DIFFERENTIATING STEM CELLS” (Massachusetts Institute of Technology, priority 2019, published 2022)

How the values were obtained:
[1] = tested on: ENR+CD organoids (ISC to Paneth cell differentiation); experiment: Primary screen: CCh-stimulated lysozyme secretion LYZ.S, 2.5-D 384-well ENR+CD organoid differentiation; format: cell-based, mouse; settings: primary screen
Description: (§1) High-throughput screening.

[2] = tested on: ENR+CD organoids; experiment: Primary screen: ATP (CellTiter-Glo 3D, CTG) cell number/viability, 2.5-D 384-well ENR+CD organoids;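 further: compounds given at plating and again on day 3 over a 6-day differentiation from ENR+CV stem-cell-enriched precursors, ATP measured on day 6, plate median as control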
[3] = tested on: ENR+CD organoids (ISC to Paneth cell differentiation); experiment: Primary screen: basal (non-stimulated) lysozyme secretion LYZ.NS, 2.5-D 384-well ENR+CD organoid differentiation; format: cell-based, mouse
Description: as §1

[4] = dose 0.08 uM, FC vs plate median
[5] = dose 0.40 uM, FC vs plate median
[6] = dose 2.00 uM, FC vs plate median
[7] = dose 10.00 uM, FC vs plate median
[8] = primary screen, dose 0.08 uM, standard z score
[9] = primary screen, dose 0.40 uM, standard z score
[10] = primary screen, dose 2.00 uM, standard z score
[11] = primary screen, dose 10.00 uM, standard z score
[12] = primary screen; dose 0.08 uM; FC vs plate median
[13] = primary screen; dose 0.40 uM; FC vs plate median
[14] = primary screen; dose 2.00 uM; FC vs plate median
[15] = primary screen; dose 10.00 uM; FC vs plate median
[16] = primary screen, standard z score, dose 0.08 uM
[17] = primary screen, standard z score, dose 0.40 uM
[18] = primary screen, standard z score, dose 2.00 uM
[19] = primary screen, standard z score, dose 10.00 uM

| Molecule | Dose.FC.LYZ.S ([1]; dose 0.08 uM) [log2 fold change] | Dose.FC.LYZ.S ([1]; dose 0.40 uM) [log2 fold change] | Dose.FC.LYZ.S ([1]; dose 2.00 uM) [log2 fold change] | Dose.FC.LYZ.S ([1]; dose 10.00 uM) [log2 fold change] | Dose.FC.CTG ([2]; primary screen, dose 0.08 uM) [log2 fold change] | Dose.FC.CTG ([2]; primary screen, dose 0.40 uM) [log2 fold change] | Dose.FC.CTG ([2]; primary screen, dose 2.00 uM) [log2 fold change] | Dose.FC.CTG ([2]; primary screen, dose 10.00 uM) [log2 fold change] | Dose.FC.LYZ.NS ([3]; primary screen, dose 0.08 uM) [log2 fold change] | Z.LYZ.NS (standard z score) ([3]; primary screen, dose 0.08 uM) | Dose.FC.LYZ.NS ([3]; primary screen, dose 0.40 uM) [log2 fold change] | Z.LYZ.NS (standard z score) ([3]; primary screen, dose 0.40 uM) | Dose.FC.LYZ.NS ([3]; primary screen, dose 2.00 uM) [log2 fold change] | Z.LYZ.NS (standard z score) ([3]; primary screen, dose 2.00 uM) | Dose.FC.LYZ.NS ([3]; primary screen, dose 10.00 uM) [log2 fold change] | Z.LYZ.NS (standard z score) ([3]; primary screen, dose 10.00 uM) | Z.CTG (standard z score) ([2]; primary screen, dose 0.08 uM) | Z.CTG (standard z score) ([2]; primary screen, dose 0.40 uM) | Z.CTG (standard z score) ([2]; primary screen, dose 2.00 uM) | Z.CTG (standard z score) ([2]; primary screen, dose 10.00 uM) | other results |
| --- | --- | --- | --- | --- | --- | --- | --- | --- | --- | --- | --- | --- | --- | --- | --- | --- | --- | --- | --- | --- | --- |
| OG-L002 |  |  |  |  |  |  |  |  |  |  |  |  |  |  |  |  |  |  |  |  | Dose.FC.LYZ.S [1, 4]: 0.023 log2 fold change; Dose.FC.LYZ.S [1, 5]: 0.026 log2 fold change; Dose.FC.LYZ.S [1, 6]: −0.001 log2 fold change; Dose.FC.LYZ.S [1, 7]: −0.084 log2 fold change; Z.CTG [2, 8]: 0.225; Z.CTG [2, 9]: 0.329; Z.CTG [2, 10]: 0.306; Z.CTG [2, 11]: 0.225; Dose.FC.CTG [2, 12]: 0.094 log2 fold change; Dose.FC.CTG [2, 13]: 0.138 log2 fold change; Dose.FC.CTG [2, 14]: 0.128 log2 fold change; Dose.FC.CTG [2, 15]: 0.094 log2 fold change; Z.LYZ.NS [3, 8]: −0.001; Z.LYZ.NS [3, 9]: −0.097; Z.LYZ.NS [3, 10]: 0.182; Z.LYZ.NS [3, 11]: −0.790; Dose.FC.LYZ.NS [3, 12]: 0.000 log2 fold change; Dose.FC.LYZ.NS [3, 13]: −0.011 log2 fold change; Dose.FC.LYZ.NS [3, 14]: 0.021 log2 fold change; Dose.FC.LYZ.NS [3, 15]: −0.091 log2 fold change |
| COc1ccc(-n2nc(C(N)=O)c3c2C(=O)N(c2ccc(N4CCCCC4=O)cc2)CC3)cc1 [Apixaban] | 0.081 | 0.029 | 0.051 | −0.096 | −0.089 | 0.111 | −0.060 | −0.077 | 0.004 | 0.035 | −0.030 | −0.260 | 0.029 | 0.253 | −0.082 | −0.712 |  |  |  |  |  |
| O=C(Nc1cccc(C(F)(F)F)c1)Nc1cc(S(=O)(=O)NC2CC2)ccc1-c1ccsc1 [AGI-6780] | 0.095 | 0.156 | 0.055 | −0.054 | 0.281 | 0.231 | 0.298 | 0.107 | 0.069 | 0.597 | 0.031 | 0.268 | 0.043 | 0.374 | −0.090 | −0.785 | 0.671 | 0.551 | 0.713 | 0.256 |  |
| COc1ccc(-c2cnc3c(-c4cccc5ncccc45)cnn3c2)cc1 [ML347] |  |  |  |  |  |  |  |  |  |  |  |  |  |  |  |  |  |  |  |  | Dose.FC.LYZ.S [1, 4]: 0.094 log2 fold change; Dose.FC.LYZ.S [1, 5]: 0.111 log2 fold change; Dose.FC.LYZ.S [1, 6]: 0.072 log2 fold change; Dose.FC.LYZ.S [1, 7]: −0.202 log2 fold change; Z.CTG [2, 8]: 0.439; Z.CTG [2, 9]: 0.500; Z.CTG [2, 10]: 0.328; Z.CTG [2, 11]: −0.404; Dose.FC.CTG [2, 12]: 0.184 log2 fold change; Dose.FC.CTG [2, 13]: 0.209 log2 fold change; Dose.FC.CTG [2, 14]: 0.137 log2 fold change; Dose.FC.CTG [2, 15]: −0.169 log2 fold change; Z.LYZ.NS [3, 8]: 1.079; Z.LYZ.NS [3, 9]: 1.150; Z.LYZ.NS [3, 10]: 0.600; Z.LYZ.NS [3, 11]: −1.078; Dose.FC.LYZ.NS [3, 12]: 0.124 log2 fold change; Dose.FC.LYZ.NS [3, 13]: 0.132 log2 fold change; Dose.FC.LYZ.NS [3, 14]: 0.069 log2 fold change; Dose.FC.LYZ.NS [3, 15]: −0.124 log2 fold change |
| Cc1cc(SCc2sc(-c3ccc(C(F)(F)F)c(F)c3)nc2C)ccc1OCC(=O)O [GW0742] |  |  |  |  |  |  |  |  |  | 0.454 |  | 0.390 |  | 0.231 |  | −1.322 | −1.794 | −1.167 | −0.596 | −1.078 | Dose.FC.LYZ.S (log2 fold change) ([1]; dose 0.08 uM): 0.048; Dose.FC.LYZ.S (log2 fold change) ([1]; dose 0.40 uM): 0.106; Dose.FC.LYZ.S (log2 fold change) ([1]; dose 2.00 uM): 0.014; Dose.FC.LYZ.S (log2 fold change) ([1]; dose 10.00 uM): −0.183; Dose.FC.CTG (log2 fold change) ([2]; primary screen, dose 0.08 uM): −0.751; Dose.FC.CTG (log2 fold change) ([2]; primary screen, dose 0.40 uM): −0.489; Dose.FC.CTG (log2 fold change) ([2]; primary screen, dose 2.00 uM): −0.249; Dose.FC.CTG (log2 fold change) ([2]; primary screen, dose 10.00 uM): −0.451; Dose.FC.LYZ.NS (log2 fold change) ([3]; primary screen, dose 0.08 uM): 0.052; Dose.FC.LYZ.NS (log2 fold change) ([3]; primary screen, dose 0.40 uM): 0.045; Dose.FC.LYZ.NS (log2 fold change) ([3]; primary screen, dose 2.00 uM): 0.026; Dose.FC.LYZ.NS (log2 fold change) ([3]; primary screen, dose 10.00 uM): −0.152 |
| VU 0364770 | 0.082 | 0.125 | 0.139 | 0.066 | 0.013 | 0.085 | 0.083 | −0.103 | 0.155 | 1.350 | 0.085 | 0.736 | 0.117 | 1.020 | 0.102 | 0.884 | 0.031 | 0.204 | 0.199 | −0.246 |  |
| Nc1cccc(-c2cc3c(Oc4cccc(O)c4)ncnc3[nH]2)c1 [TWS119] | 0.207 | 0.142 | 0.044 | −0.283 | 0.328 | 0.333 | 0.071 | −1.200 | 0.094 | 0.820 | 0.038 | 0.327 | 0.035 | 0.304 | −0.233 | −2.027 | 0.784 | 0.796 | 0.169 | −2.866 |  |
| COc1cc2c(cc1Cc1cccc(Cl)c1F)c(=O)c(C(=O)O)cn2[C@H](CO)C(C)C [Elvitegravir (GS-9137, JTK-303)] | −0.010 | 0.092 | −0.126 | −0.135 | −0.001 | −0.040 | −0.344 | −0.737 | −0.047 |  | −0.069 |  | −0.094 |  | −0.090 |  |  |  |  |  | Z.CTG [2, 16]: −0.001; Z.CTG [2, 17]: −0.095; Z.CTG [2, 18]: −0.823; Z.CTG [2, 19]: −1.760; Z.LYZ.NS [3, 16]: −0.412; Z.LYZ.NS [3, 17]: −0.598; Z.LYZ.NS [3, 18]: −0.821; Z.LYZ.NS [3, 19]: −0.782 |
